As a reminder, the IC50 is the concentration at which inhibition is half-maximal. Usually melting point stands for the temperature of the solid-liquid transition.

Structures are written as SMILES. Where “and” joins values, the source holds several entries; their conditions need not be identical. Equal entries are not always repeated. Bounds are passed on as bounds.

The target of series [1] is T1, Aβ(1-40) (Homo sapiens, UniProt P05067).
T1 construct: Soluble Aβ(1-40) peptide (Bachem, Torrance, Calif.); purchased Bachem, Torrance, Calif
The series is described as follows: BASSR (Beta-Amyloid Self-Seeding Radioassay), inhibitors of self-seeded amyloid fibril growth. The series is classed as biochemical. Particulars: 30 μM soluble Aβ(1-40) + 125I-labeled Aβ(1-40), pH 7.5, 37° C., 3 to 5 hours, filtration. As to the method: BASSR (Beta-Amyloid Self-Seeding Radioassay)
(§1) An assay for inhibitors of self-seeded amyloid fibril growth
Assay Buffer—50 mM sodium phosphate, pH 7.5, 100 mM NaCl, 0.02% NaN3, 1 M urea (filter and store at 4° C.)
Soluble Aβ(1-40) peptide (Bachem, Torrance, Calif.)—2.2 mg/mL in deionized H2O (stored in aliquots at −20° C., keep on ice when thawed) will self-seed after 1 week storage. Typically, the solution should be stored until no lag phase is seen in the assay.
^125I-labeled Aβ(1-40)—150K-350K cpm/μL in 100% acetonitrile—0.1% trifluoroacetic acid (TFA)—1% β-mercaptoethanol (aliquots stored at −20° C.). ^125I-labeled Aβ(1-40) can be made in accordance with the procedure set forth by H. Levine, III in Neurobiol. Aging, 16:755 (1995), which is hereby incorporated by reference, or this reagent may be purchased from Amersham, Arlington Heights, Ill.
Final assay conditions: 30 μM soluble Aβ(1-40) in deionized water in assay buffer+20-50K cpm ^125I-labeled Aβ(1-40) per assay. Compound to be tested is dissolved in dimethylsulfoxide (DMSO), typically 5-50 mM stock, such that the final concentration of DMSO is <1% v/v in the assay.
Assay: Reaction mixture for 50 assays (on ice) is comprised of 0.1-0.2 μL of […] ^125I-labeled Aβ(1-40)+1 μL of soluble Aβ(1-40)+13.5 μL assay buffer per assay. The following are the amounts of the components of the reaction mixture sufficient for 50 assay wells.
1) Prepare reaction mixture above by mixing components and storing on ice.
2) Pipet 14.5 μL of reaction mixture into each of 50 wells on a polypropylene U-bottom 96-well microtiter plate on ice (Costar 3794).
3) Add 1.7 μL of diluted compound to be tested to each well in a column of eight, including solvent control. Serial 3-fold dilutions from 1 mM (100 μM final) in assay buffer−urea=7 dilutions+zero. Each 96-well plate can therefore accommodate 11 samples+1 Congo Red control (0.039-5 μM final in 2-fold steps).
4) Seal the plate with aluminum film (Beckman 538619) and incubate for 10 minutes on ice.
5) Raise the temperature to 37° C. and incubate for 3 to 5 hours (depending on the lot of the peptide).
6) Remove the aluminum film and add 200 μL/well of ice cold assay buffer with urea, collecting the radiolabeled fibrils by vacuum filtration through 0.2 μm pore size GVWP filters in 96-well plates (Millipore MAGV N22, Bedford, Mass.). Determine the radioactivity of the filters using standard methods well-known to those skilled in the art.

For series [2], the target named is T1, Aβ(1-40). As to the kind of experiment: BASST (Beta-Amyloid Self-Seeding, ThioflavinT), inhibitors of self-seeded amyloid fibril growth. The format is biochemical. The settings on record: 30 μM soluble Aβ(1-40), pH 7.5, 37° C., 3 to 5 hours, thioflavin T fluorescence. As for the experimental part: BASST (Beta-Amyloid Self-Seeding, ThioflavinT)
as §1
Assay Buffer—50 mM sodium phosphate, pH 7.5, 100 mM NaCl, 0.02% NaN3, 1 M urea (filter and store at 4° C.).
Soluble Aβ(1-40)—2.2 mg/mL in deionized H2O (store in aliquots at −20° C., keep on ice when thawed) will self-seed after 1 week storage. Typically, the solution should be stored until no lag phase is seen in the assay.
Final assay conditions: 30 μM soluble Aβ(1-40) in deionized water in assay buffer. Compound to be tested is dissolved in DMSO, typically 5-50 mM stock, such that the final concentration of DMSO is <1% v/v in the assay.
Assay: Reaction mixture for 50 assays (on ice) comprised of 1 μL of soluble Aβ(1-40)+13.5 μL assay buffer per assay. The following are the amounts of the components of the reaction mixture that result in each of the 50 assay wells.
1) Prepare the reaction mix above by mixing the components and storing on ice.
2) Pipet […] of reaction mixture into each of 50 wells of a polystyrene U-bottom 96-well microtiter plate (Corning 25881-96) on ice.
3) Add […] of diluted compound to be tested to each well in a column of eight, including solvent control. Serial 3-fold dilutions from 1 mM (100 μM final) in assay buffer−urea=7 dilutions+zero. Each 96-well plate can therefore accommodate 11 samples+1 Congo Red control (0.039-5 μM final in 2-fold steps).
4) Seal the plate with aluminum film and incubate for 10 minutes on ice.
5) Raise the temperature to 37° C. and incubate for 3 to 5 hours (depends on the lot of the peptide).
6) Remove the aluminum film and add 250 μL/well of 5 μM thioflavin T (ThT) [T-3516, Sigma-Aldrich] in 50 mM glycine-NaOH, pH 8.5. Read fluorescence on a plate reader (ex=440 nm/20 nm; em=485 nm/20 nm) within 5 minutes.

Series [3] deals with T2, beta amyloid peptide Aβ(1-40) (Homo sapiens, UniProt P05067).
T2 construct: 0.5 mg/mL AP (140) peptide in 20% HFIP+0.1 μL/assay radioiodinated ^125I Aβ(1-40)
The series is described as follows: BAPA (Beta-Amyloid Peptide Aggregation), pH 6.0. The series is classed as biochemical. Particulars: Aβ(1-40) 33 μM, pH 6.0, 2 to 4 hours at room temperature, filtration. As for the experimental part:
BAPA (Beta-Amyloid Peptide Aggregation)
This assay is used to provide a measure of inhibition by a compound against the aggregation behavior of the beta amyloid peptide.
The purpose of this assay is to provide a higher volume method of assaying the amount of beta amyloid aggregation using an endpoint assay based on filtration. In this assay, hexafluoroisopropanol (HFIP) is used to break down the initial amyloid peptide to a monomer state and use a concentration of 33 μM which is high enough so that aggregation will occur at pH 6.0 in several hours.
β-Amyloid Peptide Aggregation, pH 6.0 (BAPA)
In a 96-well plate (Costar 3794), we add […] 50 mM Phosphate Buffer, pH 6.0, 10 μL 0.5 mg/mL AP (140) peptide in 20% HFIP+0.1 μL/assay radioiodinated ^125I Aβ(1-40) [^125I Aβ(1-40)], and 1 μL of the compound to be tested starting at 50 mM with a concentration of DMSO <1%. Then, we incubate for 2 to 4 hours at room temperature. We stop the reaction with […] of 50 mM phosphate buffer, pH 6.0, and filter it through a 0.2 μm 96-well filter plate (Millipore MAGU N22). We wash the filter plate with 100 μL of the same phosphate buffer. Aggregation was detected on a Microbeta counter after impregnating the filters with Meltilex (1450-441) and is corrected for background.

For series [4], the target named is T3, Aβ(1-42) (Homo sapiens, UniProt P05067).
T3 construct: Required Aβ(1-42)(California Peptide) was dried from its hexafluoroisopropanol (HFIP) stock solution; purchased California Peptide
As to the kind of experiment: BATYM Assay (Aβ(1-42) aggregation, Thioflavin T fluorescence). Particulars: Aβ 1-42 final concentration 100 μM, PBS pH 7.4, 37° C., 1 day, ThT fluorescence. The series is classed as biochemical. As for the experimental part: Required Aβ(1-42)(California Peptide) was dried from its hexafluoroisopropanol (HFIP) stock solution. The Aβ(1-42) was dissolved in dimethylsulfoxide (DMSO) and then mixed with phosphate buffered saline, (PBS) (pH 7.4). The mixed Aβ(1-42) solution was filtered with a 0.2 μm Omnipore membrane syringe filter (Millipore, Bedford, Mass.). The compound to be tested in DMSO (50 times concentrate) was put into each well (0.5 μL/well) of a 96-well plate. The Aβ(1-42) solution was added into each well (24.5 μL/well). The plate was centrifuged at 1,000 g for 5 minutes and incubated at 37° C. for 1 day (Aβ 1-42; final concentration 100 μM).
After incubation Thioflavin T (ThT) (30 μM) solution in glycine-NaOH buffer (pH 8.5, 50 mM) was added into each well (250 μL/well), fluorescence was measured (ex. 440/20 nm; em 485/20 nm) using a fluorescence plate reader. The inhibitory activity was calculated as the reduction of fluorescence with the following formula:
inhibition (%)={(F(Aβ)−F(Aβ+compound)}/{F(Aβ)−F(solvent+compound)}×100
The IC50s were calculated by a curve fitting program using the following equation. The data were obtained from two different experiments in triplicate.
x=concentration of tested compound (M),

T3 sequence (P05067 672-713 limits assumed): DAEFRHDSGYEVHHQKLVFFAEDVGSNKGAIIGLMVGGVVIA
T1 sequence (P05067 672-711 limits assumed): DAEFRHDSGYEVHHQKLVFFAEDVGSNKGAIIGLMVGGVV
T2 sequence (P05067 672-711 limits assumed): as above

`CCCCCN(CCCCC)c1ccc(/C=C2\SC(=S)N(Cc3nnn[nH]3)C2=O)cc1` [Example 17]: the melting point is 208 to 210 °C. Further, the IC50 in series [1] is 10 µM and 5 µM. In addition, the IC50 in series [2] is 1 µM and 1.5 µM. In series [3], this molecule displayed a half-inhibitory concentration (IC50) of 2 µM. Also, the IC50 in series [4] came to 1.87 µM.
In the case of `CCCC1CCN(c2ccc(/C=C3\SC(=S)N(Cc4cc(=O)c(O)co4)C3=O)cc2)CC1` [Example 34, (Z) 3-(5-Hydroxy-4-oxo-4H-pyran-2-ylmethyl)-5-[4-(4-propyl-piperidin-1-yl)-benzylidene]-2-thioxo-thiazolidin-4-one], the melting point is 253 °C. Moreover, the IC50 in series [1] is more than 100 µM. Moreover, in series [2], half-maximal inhibition (IC50) required 2 µM. In series [3], this molecule showed a 50% inhibitory concentration (IC50) of more than 60 µM. Also, the IC50 in series [4] is 2.38 µM.
In turn, `CCCCCCN(C)c1ccc(/C=C2\SC(=S)N(CC(=O)NS(=O)(=O)C(F)(F)F)C2=O)cc1` [Example 7, (Z) C,C,C-Trifluoro-N-({5-[4-(hexyl-methyl-amino)-benzylidene]4-oxo-2-thioxo-thiazolidin-3-yl}-acetyl)methanesulfonamide] displayed a melting point of 94 to 97 °C. Also, the half-inhibitory concentration (IC50) in series [1] was 1 µM. The molecule also came in with an IC50 in series [2] of 0.4 µM. The same molecule gave an IC50 in series [3] of 70 µM. In series [4], the 50% inhibitory concentration (IC50) is 1.7 µM.
`CCCCCN(CCCCC)c1ccc(/C=C2\SC(=S)N(CCS(=O)(=O)NC(=O)c3ccc(F)cc3)C2=O)cc1` [Example 31, (Z) 2-[5-(4-Dipentylamino-benzylidene)-4-oxo-2-thioxo-thiazolidin-3-yl]-ethanesulfonic acid 4-fluoro-benzoylamide]: the melting point fell in the range of 195 to 196 °C. Besides, the IC50 in series [1] worked out at 9 µM. In series [2], inhibition was half-maximal at 0.3 µM (IC50). This molecule yielded an IC50 in series [3] of more than 100 µM. The molecule further had an IC50 in series [4] of 3.11 µM.
The like results for `CCCCCN(CCCCC)c1ccc(/C=C2\SC(=S)N(CC(=O)NS(=O)(=O)C(F)(F)F)C2=O)cc1` [Example 8, (Z) N-{5-[4-(Dipentylamino-benzylidene)-4-oxo-2-thioxo-thiazolidin-3-yl]-acetyl}-C,C,C-trifluoro-methanesulfonamide] were, in that order, 286 to 288 °C, more than 100 µM, 1 µM, 2.5 µM and 1.96 µM.
For `CCCCN(CCCC)c1ccc(/C=C2\SC(=S)N(CCS(=O)(=O)NC(=O)c3ccccc3)C2=O)cc1` [Example 28, (Z) 2-[5-(4-Dibutylamino-benzylidene)-4-oxo-2-thioxo-thiazolidin-3-yl]-ethanesulfonic acid benzoylamide], in that order: 183 °C, 21 µM, 0.3 µM, 69 µM and 2.19 µM.
For `CCCCCCN(C)c1ccc(/C=C2\SC(=S)N(CCNS(C)(=O)=O)C2=O)cc1` [Example 10, (Z) N-(2-{5-[4-(Hexyl-methyl-amino)-benzylidene]-4-oxo-2-thioxo-thiazolin-3-yl}-ethyl)-methanesulfonamide], in that order: 150 to 153 °C, more than 100 µM, 1.1 µM, 8 µM and 2.51 µM.
For `CCCCCCN(C)c1ccc(/C=C2\SC(=S)N(CCS(=O)(=O)NC)C2=O)cc1` [Example 2, (Z) 2-{5-[4-(Hexyl-methyl-amino)-benzylidene]-4-oxo-2-thioxo-thiazolidin-3-yl}-ethanesulfonic acid methylamide], the melting point lay in the range of 147 to 149 °C. Moreover, in series [1], the IC50 was more than 100 µM. This molecule came in with an IC50 in series [2] of 0.8 µM. Moreover, the 50% inhibitory concentration (IC50) in series [3] came out at 7 µM. Besides, the midpoint of inhibition in series [4], the IC50, lay at 2.32 µM.
Molecule `CCCCCCN(C)c1ccc(/C=C2\SC(=S)N(CCS(=O)(=O)NC(=O)C(F)(F)F)C2=O)cc1` [Example 3, (Z) 2-{5-[4-(Hexyl-methyl-amino)-benzylidene]-4-oxo-2-thioxo-thiazolidin-3-yl}-ethanesulfonic acid trifluoroacetyl-amide] came in with a melting point of 158 to 162 °C. The IC50 in series [1] is 8 µM. Besides, the IC50 in series [2] is 0.3 µM. This molecule also had an IC50 in series [3] of more than 100 µM. In addition, the IC50 in series [4] is 2.24 µM.

These data come from patent publication US20040197268A1, “Method of imaging amyloid deposits using substituted rhodanine derivatives” (priority 1999, published 2004).
